Results taken from patent US20220153746A1, “NITROGEN OXIDE-DONATING PDE-5 AND/OR PDE-6 INHIBITOR COMPOUNDS, AND USES THEREOF” (ILDONG PHARMACEUTICAL CO., LTD., priority 2020, published 2022).
Like-named read-outs stand apart in the source and are kept apart here.

Experiment: PK Phase (Group 2): plasma concentrations and pharmacokinetics of Compound 18 and its metabolite Compound 4 after once daily ocular instillation of Compound 18 nanosuspension for 7 days
Format: in vivo, New Zealand white rabbits
Excerpt: This example illustrates the procedures and results for the levels of Compound 18 and its metabolite Compound 4 in plasma and ocular tissues of normotensive rabbits following ocular instillation of Compound 18 once daily for 7 consecutive days.
Twenty five (25) male New Zealand white rabbits were divided into 5 groups of varying amounts of animals per group.
The Test article, Compound 18 was formulated as a 2% nanosuspension in DI water containing 0.2% PS80 (polyoxyethylenesorbitan, monooleate (Tween 80)) and 0.4% HPMC (hydroxypropylmethylcellulose) at pH 6.77. Referred to herein as “Compound 18 nanosuspension.”
The study consisted of three groups (Groups 1-3) of 19 male rabbits (NZW) that underwent once daily morning ocular installation (1 eyedrop) for 7 consecutive days (Day 0-6). Groups 4-5 each consisted of 3 male rabbits (NZW) that were not dosed.
Blood samples (1 mL) were collected from the jugular vein at the intervals set out below for each group. The samples were then inverted several times following collection and held on wet ice until centrifuged. Samples were centrifuged within 60 minutes of collection under refrigeration (set at 5° C. for 10 minutes at 2000 g. […]
Plasma and tissue samples from treated animals (Groups 1-3) were analyzed for Compound 18 and its metabolite Compound 4 concentrations by LC-MS/MS.
Pharmacokinetic analysis was conducted using WinNonlin Version 6.2.1 (Pharsight, Mountain View, Calif.), operating as a validated software system. Noncompartmental analysis was conducted using the extravascular administration model for ocular instillation dosing.
The peak plasma concentration, time to achieve peak plasma concentration, half-life, and area under the plasma concentration-time curve (Cmax, Tmax, T1/2, and AUC) were calculated from the PK phase individual animal plasma concentrations for each sampling time/dose group for Compound 18 and its metabolite Compound 4.
BA Assay: Quantitation Range 0.05 to 100 ng/mL for Compound 18, 0.15 to 100 ng/mL for Compound 4.
Plasma calibration standards (PLSTD-A) with Compound 18 concentrations ranging from 0.0500 to 100 ng/mL were prepared by spiking control rabbit plasma with appropriate calibration curve spiking solutions (SS-A). PLQC-A samples with concentrations of 0.150, 5.00, 50.0, and 80.0 ng/mL were prepared by spiking control rabbit plasma with appropriate SS-A-QC spiking solutions.
Plasma calibration standards (PLSTD-B) with Compound 4 concentrations ranging from 0.150 to 100 ng/mL were prepared by spiking control rabbit plasma with appropriate calibration curve spiking solutions (SS-B). PLQC-B samples with concentrations of 0.450, 5.00, 50.0, and 80.0 ng/mL were prepared by spiking control rabbit plasma with appropriate SS-B-QC spiking solutions. PLQC-B-Dil samples at 800 ng/mL were prepared by spiking control rabbit plasma with the SS-B-QC-Dil spiking solution at 16,000 ng/mL, and then diluted 20× with control rabbit plasma prior to extraction.
1. Thaw plasma standards, plasma QC samples, ocular tissue QC samples, incurred plasma samples and ocular tissue samples (AH/VH) (if applicable) on wet ice. Control plasma can be thawed in tepid water. Vortex before taking aliquots.
2. Pipet 50 μL of water for Reagent Blank, 50 μL of control plasma for Double Blank and Blank, 50 μL of pre-spiked plasma for Standards and QC samples, 50 μL of incurred plasma samples (if applicable) into a 96 well plate.
5. Add 200 μL of working internal standard (WIS) solution to all remaining samples.
6. Seal the plate and vortex for approximately 5 minutes. Centrifuge the plate at 3500 rpm for 10 minutes at ˜4° C.
7. Transfer ˜200 μL of each sample supernatant into the appropriate wells of a 96 well plate. Submit for LC MS/MS analysis.
A total of 25 rabbits were used for this study, including 19 treated rabbits and 6 control rabbits. […]

CCCc1nn(C)c2c(=O)[nH]c(-c3cc(S(=O)(=O)N4CC(CCCO[N+](=O)[O-])C4)ccc3OCC)nc12 [Compound 18, 3-(1-((4-ethoxy-3-(1-methyl-7-oxo-3-propyl-6,7-dihydro-1H-pyrazolo[4,3-d]pyrimidin-5-yl)phenyl)sulfonyl)azetidin-3-yl)propyl nitrate]
Day 7 Compound 18 Plasma Concentration (0.5 h, animal 207665): BQL (BQL = Below lower limit of quantitation (0.0500 ng/mL for Compound 18)
Day 1 Compound 18 Plasma Concentration (1 h, animal 207664): BQL^a (BQL = Below lower limit of quantitation (0.0500 ng/mL for Compound 18)
Day 1 Compound 18 Plasma Concentration (1 h, animal 207665): BQL (BQL = Below lower limit of quantitation (0.0500 ng/mL for Compound 18)
Day 7 Compound 18 Plasma Concentration (1 h, animal 207665): BQL (BQL = Below lower limit of quantitation (0.0500 ng/mL for Compound 18)
Day 1 Compound 18 Plasma Concentration (2 h, animal 207664): BQL (BQL = Below lower limit of quantitation (0.0500 ng/mL for Compound 18)
Day 1 Compound 18 Plasma Concentration (2 h, animal 207665): BQL (BQL = Below lower limit of quantitation (0.0500 ng/mL for Compound 18)
Day 7 Compound 18 Plasma Concentration (2 h, animal 207665): BQL (BQL = Below lower limit of quantitation (0.0500 ng/mL for Compound 18)
Day 1 Compound 18 Plasma Concentration (2 h, animal 207666): BQL (BQL = Below lower limit of quantitation (0.0500 ng/mL for Compound 18)
Day 7 Compound 18 Plasma Concentration (2 h, animal 207667): BQL (BQL = Below lower limit of quantitation (0.0500 ng/mL for Compound 18)
Day 1 Compound 18 Plasma Concentration (4 h, animal 207664): BQL (BQL = Below lower limit of quantitation (0.0500 ng/mL for Compound 18)
Day 7 Compound 18 Plasma Concentration (4 h, animal 207664): BQL (BQL = Below lower limit of quantitation (0.0500 ng/mL for Compound 18)
Day 1 Compound 18 Plasma Concentration (4 h, animal 207665): BQL (BQL = Below lower limit of quantitation (0.0500 ng/mL for Compound 18)
Day 7 Compound 18 Plasma Concentration (4 h, animal 207665): BQL (BQL = Below lower limit of quantitation (0.0500 ng/mL for Compound 18)
Day 1 Compound 18 Plasma Concentration (4 h, animal 207667): BQL (BQL = Below lower limit of quantitation (0.0500 ng/mL for Compound 18)
Day 7 Compound 18 Plasma Concentration (4 h, animal 207667): BQL (BQL = Below lower limit of quantitation (0.0500 ng/mL for Compound 18)
Day 1 Compound 18 Plasma Concentration (8 h, animal 207664): BQL (BQL = Below lower limit of quantitation (0.0500 ng/mL for Compound 18)
Day 7 Compound 18 Plasma Concentration (8 h, animal 207664): BQL (BQL = Below lower limit of quantitation (0.0500 ng/mL for Compound 18)
Day 1 Compound 18 Plasma Concentration (8 h, animal 207665): BQL (BQL = Below lower limit of quantitation (0.0500 ng/mL for Compound 18)
Day 1 Compound 18 Plasma Concentration (8 h, animal 207666): BQL (BQL = Below lower limit of quantitation (0.0500 ng/mL for Compound 18)
Day 1 Compound 18 Plasma Concentration (8 h, animal 207667): BQL (BQL = Below lower limit of quantitation (0.0500 ng/mL for Compound 18)
Day 7 Compound 18 Plasma Concentration (8 h, animal 207667): BQL (BQL = Below lower limit of quantitation (0.0500 ng/mL for Compound 18)
Day 1 Compound 18 Plasma Concentration (24 h, animal 207664): BQL (BQL = Below lower limit of quantitation (0.0500 ng/mL for Compound 18)
Day 7 Compound 18 Plasma Concentration (24 h, animal 207664): BQL (BQL = Below lower limit of quantitation (0.0500 ng/mL for Compound 18)
Day 1 Compound 18 Plasma Concentration (24 h, animal 207665): BQL (BQL = Below lower limit of quantitation (0.0500 ng/mL for Compound 18)
Day 7 Compound 18 Plasma Concentration (24 h, animal 207665): BQL (BQL = Below lower limit of quantitation (0.0500 ng/mL for Compound 18)
Day 1 Compound 18 Plasma Concentration (24 h, animal 207667): BQL (BQL = Below lower limit of quantitation (0.0500 ng/mL for Compound 18)
In-life observations (Groups 1-3, Compound 18 nanosuspension 1 drop/eye/day for 7 days, except animal #207664 discolored skin and rapid respiratory rate on Day 7): normal following dosing
concentration at 0.5 h (male, New Zealand white, rabbit, plasma, other: ocular instillation (eye drop), 0.821 mg/kg/day, 0.5 h, Mean of 4 animals, BQL set to 0, read-out: Day 7 Compound 18 Plasma Concentration): 0.0811 ng/mL
concentration at 0.5 h (male, New Zealand white, rabbit, plasma, other: ocular instillation (eye drop), 0.821 mg/kg/day, 0.5 h, animal 207664, read-out: Day 7 Compound 18 Plasma Concentration): 0.0978 ng/mL
concentration at 0.5 h (male, New Zealand white, rabbit, plasma, other: ocular instillation (eye drop), 0.821 mg/kg/day, 0.5 h, animal 207666, read-out: Day 7 Compound 18 Plasma Concentration): 0.163 ng/mL
concentration at 0.5 h (male, New Zealand white, rabbit, plasma, other: ocular instillation (eye drop), 0.821 mg/kg/day, 0.5 h, animal 207667, read-out: Day 7 Compound 18 Plasma Concentration): 0.0634 ng/mL
concentration at 1 h (male, New Zealand white, rabbit, plasma, other: ocular instillation (eye drop), 0.821 mg/kg/day, 1 h, Mean of 4 animals, BQL set to 0, read-out: Day 7 Compound 18 Plasma Concentration): 0.15 ng/mL
concentration at 1 h (male, New Zealand white, rabbit, plasma, other: ocular instillation (eye drop), 0.821 mg/kg/day, 1 h, animal 207664, read-out: Day 7 Compound 18 Plasma Concentration): 0.306 ng/mL
concentration at 1 h (male, New Zealand white, rabbit, plasma, other: ocular instillation (eye drop), 0.821 mg/kg/day, 1 h, animal 207666, read-out: Day 7 Compound 18 Plasma Concentration): 0.131 ng/mL
concentration at 1 h (male, New Zealand white, rabbit, plasma, other: ocular instillation (eye drop), 0.821 mg/kg/day, 1 h, animal 207667, read-out: Day 7 Compound 18 Plasma Concentration): 0.161 ng/mL
concentration at 2 h (male, New Zealand white, rabbit, plasma, other: ocular instillation (eye drop), 0.821 mg/kg/day, 2 h, Mean of 4 animals, BQL set to 0, read-out: Day 1 Compound 18 Plasma Concentration): 0.0208 ng/mL
concentration at 2 h (male, New Zealand white, rabbit, plasma, other: ocular instillation (eye drop), 0.821 mg/kg/day, 2 h, Mean of 4 animals, BQL set to 0, read-out: Day 7 Compound 18 Plasma Concentration): 0.0657 ng/mL
concentration at 2 h (male, New Zealand white, rabbit, plasma, other: ocular instillation (eye drop), 0.821 mg/kg/day, 2 h, animal 207664, read-out: Day 7 Compound 18 Plasma Concentration): 0.188 ng/mL
concentration at 2 h (male, New Zealand white, rabbit, plasma, other: ocular instillation (eye drop), 0.821 mg/kg/day, 2 h, animal 207666, read-out: Day 7 Compound 18 Plasma Concentration): 0.0747 ng/mL
concentration at 2 h (male, New Zealand white, rabbit, plasma, other: ocular instillation (eye drop), 0.821 mg/kg/day, 2 h, animal 207667, read-out: Day 1 Compound 18 Plasma Concentration): 0.083 ng/mL
concentration at 4 h (male, New Zealand white, rabbit, plasma, other: ocular instillation (eye drop), 0.821 mg/kg/day, 4 h, Mean of 4 animals, BQL set to 0, read-out: Day 1 Compound 18 Plasma Concentration): 0.0164 ng/mL
concentration at 4 h (male, New Zealand white, rabbit, plasma, other: ocular instillation (eye drop), 0.821 mg/kg/day, 4 h, Mean of 4 animals, BQL set to 0, read-out: Day 7 Compound 18 Plasma Concentration): 0.017 ng/mL
concentration at 4 h (male, New Zealand white, rabbit, plasma, other: ocular instillation (eye drop), 0.821 mg/kg/day, 4 h, animal 207666, read-out: Day 1 Compound 18 Plasma Concentration): 0.0655 ng/mL
concentration at 4 h (male, New Zealand white, rabbit, plasma, other: ocular instillation (eye drop), 0.821 mg/kg/day, 4 h, animal 207666, read-out: Day 7 Compound 18 Plasma Concentration): 0.0678 ng/mL
concentration at 8 h (male, New Zealand white, rabbit, plasma, other: ocular instillation (eye drop), 0.821 mg/kg/day, 8 h, Mean of 4 animals, BQL set to 0, read-out: Day 1 Compound 18 Plasma Concentration): 0 ng/mL
